Experimental data published in patent publication US12305171B2, “Compositions and methods for treating cancer” (bioAffinity Technologies, Inc., priority 2018, dated 2025).
pIC50: −log10 of the molar value. Like-named read-outs stand apart in the source and are kept apart here.

How the values were obtained:
GM05659 [1] = test: functional siRNA cell proliferation screening (CTG assay); assay type: cell-based; settings: GM05659 (Normal); 4 txns; 7 days expt; n=3
Experimental: (§1) FIGS. 9 A-E illustrate graphs of the percent cell survival of siCD320 and siLRP2 on cell proliferation—Cell lines representative of several types of cancers (lung, brain) or normal fibroblasts were transfected with individual or combinations of siRNAs targeting CD320 (OSC17, OSC47) or LRP2 (05L231, OSL245), individually at 20 nM or in combination (10 nM each), or a negative control siRNA (OSS2) (20 nM) as indicated. Cells were repeatedly transfected as outlined in Table 9 for efficient toxicity, then assayed for viability by the CTG assay. Doxorubicin-treated cells served as a positive control for cell toxicity in our assays (Table 8).
(§2) FIGS. 10 A-E illustrate graphs of the effects of siCD320 and siLRP2 on cell proliferation—Cell lines representative of several types of cancers (breast, prostate, skin) were transfected with individual or combinations of siRNAs targeting CD320 (OSC17, OSC47) or LRP2 (05L231, OSL245) as indicated. Cells were repeatedly transfected as outlined in Table 9 for efficient toxicity, then assayed for viability by the CTG assay. Doxorubicin-treated cells served as a positive control for cell toxicity in our assays (Table 8).
(§3) Referring now to FIG. 16, treatment of breast, prostate, and skin cancer cells with an inhibitor of CD320 receptor or an inhibitor of LRP2 receptor or a combination of both in an amount effective to inhibit proliferation of the cancer cells as compared to the control cells treated with control siRNA is illustrated. MDA-MB-231, DU145, LnCAP, and MDA-MB-435S cells were plated at 20,000 cells per well in a 24-well plate. The next day, the cells were transected with 20 nM of indicated siRNAs to knock down CD320, LRP2, or scrambled control. For the combination of siRNAs, cells were treated with 10 nM of each siRNA for 20 nM total treatments. The indicated pictures of the cells were taken at the end of the experiment.

A172 [2] = test: as above; assay type: cell-based; settings: A172 (Glioblastoma); 5 txns; 7 days expt; n=3
Experimental: as §1, §2, §3

HCC15 [3] = test: as above; assay type: cell-based; settings: HCC15 (Lung); 2 txns; 7 days expt; n=3
Experimental: as §1, §2, §3

U251 [4] = test: as above; assay type: cell-based; settings: U251 (Glioblastoma); 6 txns; 8 days expt; n=4
Experimental: as §1, §2, §3

MCF-7 = test: as above; assay type: cell-based; settings: MCF-7 (Breast); 2 txns; 7 days expt; n=3
Experimental: as §1, §2, §3

H157 = test: as above; assay type: cell-based; settings: H157 (Lung); 5 txns; 8 days expt; n=3
Experimental: as §1, §2, §3

DU145 [5] = test: functional siRNA cell proliferation assay (CTG assay, microscopy); assay type: cell-based; settings: DU-145 (Prostate); 4 txns; 7 days expt; n=6
From the text: as §2
(§4) FIGS. 11A-B illustrate the effects of siCD320 and siLRP2 molar proportions on cell proliferation with different molar proportions of siRNA targeting CD320 and siRNA targeting LRP2. Cell lines representative of two types of cancers (breast, prostate) were transfected with different proportions of siRNAs targeting CD320 (OSC17) or LRP2 (05L245) (0-20 nM) or a negative control siRNA (OSS2) as indicated. Cells were repeatedly transfected for efficient toxicity then assayed for viability by the CTG assay. Doxorubicin-treated cells served as a positive control for cell toxicity in our assays (Table 8).
FIGS. 16 A-D illustrate plated cells showing the effects of siCD320 and siLRP2 on four cell lines. […] Cells were repeatedly transfected for efficient toxicity as in Table 9 and then analyzed by microscopy as indicated. […]

MDA-MB-231 = test: as above; assay type: cell-based; settings: MDA-MB-231 (Breast); 4 txns; 11 days expt; n=6
From the text: as §2
as §4, with “Cells were repeatedly transfected for efficient toxicity then assayed for viability by the CTG assay. Doxorubicin-treated cells served as a positive control for cell toxicity in our assays (Table 8).” left out
FIGS. 16 A-D illustrate plated cells showing the effects of siCD320 and siLRP2 on four cell lines. […] Cells were repeatedly transfected for efficient toxicity as in Table 9 and then analyzed by microscopy as indicated.
Now, referring to FIG. 10B, MDA-MB-231 triple negative breast cancer cells were plated in a 24-well plate at 20,000 cells/well. […] At day 11, cells were analyzed for cell growth by the CTG assay. […]

MDA-MB-435S [6] = test: as above; assay type: cell-based, human; settings: MDA-MB-435S (Melanoma); 5 txns; 10 days expt; n=4
From the text: as §2
(§5) FIGS. 16 A-D illustrate plated cells showing the effects of siCD320 and siLRP2 on four cell lines. Cell lines representative of four types of cancers (breast, two prostate, skin) were transfected with siRNAs targeting CD320 (OSC17) or LRP2 (05L245) individually at 20 nM or in combination (10 nM each) or a negative control siRNA (OSS2) (20 nM) as indicated. Cells were repeatedly transfected for efficient toxicity as in Table 9 and then analyzed by microscopy as indicated.
(§6) Referring now to FIG. 16, treatment of breast, prostate, and skin cancer cells with an inhibitor of CD320 receptor or an inhibitor of LRP2 receptor or a combination of both in an amount effective to inhibit proliferation of the cancer cells as compared to the control cells treated with control siRNA is illustrated. […]

LncAP = test: as above; assay type: cell-based; settings: LnCAP (Prostate); 4 txns; 7 days expt; n=3
From the text: as §2, §5, §6

MDA-MB-435S [7] = test: doxorubicin cell viability, CTG assay; assay type: cell-based; settings: Homo sapiens, 96 h, Melanoma, CTG 4 days after treatment
Experimental: (§7) A172 and HCC15 cells were plated at 1200 cells/well in a 96 well plate. The next day, cells were treated with doxorubicin at the indicated concentrations. Four days after the doxorubicin exposure was initiated, the cells were assayed for viability using the CTG assay. […] After incubating the cells with the CTG reagent, ATP levels can be indirectly measured as light production using the TECAN luminescence plate reader. As a first step, toxicity of a known chemotherapeutic drug, doxorubicin, was assayed on the cell lines of interest. Doxorubicin was used as a positive control for cell toxicity in our assay.
(§8) The cells lines were plated at 1,000 to 4,000 cells/well in a 96-well plate and treated with doxorubicin the following day. CTG activity was measured 4 days after treatment. IC50 values were calculated by GraphPad Prism Software.

NCI-H460 = test: doxorubicin cell viability, CTG assay; assay type: cell-based; settings: Homo sapiens, 96 h; NCI-H460, Lung; CTG 4 days after treatment
Experimental: as §7, §8

HEK293 = test: doxorubicin cell viability, CTG assay; assay type: cell-based; settings: Homo sapiens, 96 h; HEK293, Other; CTG 4 days after treatment
Experimental: as §7, §8

PC3 = test: doxorubicin cell viability, CTG assay; assay type: cell-based; settings: Homo sapiens, PC-3, 96 h; PC3, Prostate; CTG 4 days after treatment
Experimental: as §7, §8

GM05659 [8] = test: doxorubicin cell viability, CTG assay; assay type: cell-based; settings: 96 h; GM05659, Other; CTG 4 days after treatment
Experimental: as §7, §8

U251 [9] = test: doxorubicin cell viability, CTG assay; assay type: cell-based; settings: Homo sapiens, U-251, 96 h; U251, Glioblastoma; CTG 4 days after treatment
Experimental: as §7, §8

DU145 [10] = test: doxorubicin cell viability, CTG assay; assay type: cell-based; settings: Homo sapiens, DU-145, 96 h; DU145, Prostate; CTG 4 days after treatment
Experimental: as §7, §8

A172 [11] = test: doxorubicin cell viability, CTG assay; assay type: cell-based; settings: Homo sapiens, A 172, 96 h
Experimental: (§9) A172 and HCC15 cells were plated at 1200 cells/well in a 96 well plate. The next day, cells were treated with doxorubicin at the indicated concentrations. Four days after doxorubicin treatment was initiated, the cells were assayed for viability using the CTG assay. The dashed line indicates the non-linear fitting of the data to calculate an IC50 value.
as §7, §8

HCC15 [12] = test: doxorubicin cell viability, CTG assay; assay type: cell-based; settings: 96 h
Experimental: as §9, §7, §8

For `COc1cccc2c1C(=O)c1c(O)c3c(c(O)c1C2=O)C[C@@](O)(C(=O)CO)C[C@@H]3O[C@H]1C[C@H](N)[C@H](O)[C@H](C)O1` [DOX], the “percent survival compared to negative control OSS2” value (shortened to “percent survival”) (GM05659 [1]) was 39%, the “percent survival” value (A172 [2]) was 8% and the “percent survival” value (HCC15 [3]) was 2%. The “percent survival” value (U251 [4]) was 51%, the “percent survival” value (MCF-7) was 5% and the “percent survival” value (H157) was 20%. For the same molecule, the “percent survival” value (DU145 [5]) was 40%, the “percent survival” value (MDA-MB-231) was 7% and the “percent survival” value (MDA-MB-435S [6]) was 51%. For the same molecule, the “percent survival” value (LncAP) was 38%.

`COc1cccc2c1C(=O)c1c(O)c3c(c(O)c1C2=O)C[C@@](O)(C(=O)CO)C[C@@H]3O[C@H]1C[C@H](N)[C@H](O)[C@H](C)O1` [doxorubicin] showed a pIC50 (MDA-MB-435S [7]) of 6.49, a pIC50 (NCI-H460) of 7.25 and a pIC50 (HEK293) of 7.54. The pIC50 (PC3) was 6.41, the pIC50 (GM05659 [8]) was 6.57 and the pIC50 (U251 [9]) was 7.62. For the same molecule, the pIC50 (DU145 [10]) was 6.61, the pIC50 (A172 [11]; A172, Glioblastoma, CTG 4 days after treatment, read-out: IC50) was 6.88 and the pIC50 (A172 [11]; A172 cells, CTG four days after exposure, read-out: IC50 of doxorubicin treatment) was 6.88. For the same molecule, the pIC50 (HCC15 [12]; HCC15, Lung, CTG 4 days after treatment, read-out: IC50) was 6.78 and the pIC50 (HCC15 [12]; HCC15 cells, CTG four days after exposure, read-out: IC50 of doxorubicin treatment) was 6.78.
